According to patent US20230085307A1, “PYRIDAZINONE COMPOUND AND HERBICIDE” (NISSAN CHEMICAL CORPORATION, priority 2019, published 2023):

Tested on: wild oat
Test: Test Example 5: herbicidal effect by foliage application, plastic box (Table 20, symbol I)
Assay type: in vivo, wild oat (Avena fatua)
Settings: amount of applied herbicide 320 g/ha; foliage application after 14-day growth; evaluated three weeks after application
Outline: (§1)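 Foliar spray test: emulsion formulation diluted in water to a set application rate, sprayed onto 14-day-old plants raised in diluvial soil at 25° C to 30° C under glass. Both herbicidal effect and crop effect rated visually three weeks later.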

Structure (SMILES)	Herbicidal effect by foliage application, I: wild oat
CCSc1cccc(-c2sc3c(Cl)cccc3c2-c2c(O)c(C)nn(C)c2=O)c1 [4-092]	1 (Herbicidal rate of 5% or more and less than 20%)
CCCC(=O)Oc1c(C)nn(C)c(=O)c1-c1c(-c2cccc3c2OCC3)sc2c(Cl)cccc12 [4-099]	0 (Herbicidal rate of 5% or less (almost no effect))
CSc1ccccc1-c1sc2c(C)cccc2c1-c1c(O)c(C)nn(C)c1=O [4-116]	0 (Herbicidal rate of 5% or less (almost no effect))

Tested on: lambsquarters
Test: Test Example 5: herbicidal effect by foliage application, plastic box (Table 20, symbol O)
Assay type: in vivo, lambsquarters (Chenopodium album)
Settings: amount of applied herbicide 320 g/ha; foliage application after 14-day growth; evaluated three weeks after application
Outline: as §1

Structure (SMILES)	Herbicidal effect by foliage application, O: lambsquarters
CCSc1cccc(-c2sc3c(Cl)cccc3c2-c2c(O)c(C)nn(C)c2=O)c1 [4-092]	3 (Herbicidal rate of 40% or more and less than 70%)
CCCC(=O)Oc1c(C)nn(C)c(=O)c1-c1c(-c2cccc3c2OCC3)sc2c(Cl)cccc12 [4-099]	0 (Herbicidal rate of 5% or less (almost no effect))
CSc1ccccc1-c1sc2c(C)cccc2c1-c1c(O)c(C)nn(C)c1=O [4-116]	0 (Herbicidal rate of 5% or less (almost no effect))

Tested on: southern crabgrass
Test: Test Example 5: herbicidal effect by foliage application, plastic box (Table 20, symbol F)
Assay type: in vivo, southern crabgrass (Digitaria ciliaris)
Settings: amount of applied herbicide 320 g/ha; foliage application after 14-day growth; evaluated three weeks after application
Outline: as §1

Structure (SMILES)	Herbicidal effect by foliage application, F: southern crabgrass
CCSc1cccc(-c2sc3c(Cl)cccc3c2-c2c(O)c(C)nn(C)c2=O)c1 [4-092]	4 (Herbicidal rate of 70% or more and less than 90%)
CCCC(=O)Oc1c(C)nn(C)c(=O)c1-c1c(-c2cccc3c2OCC3)sc2c(Cl)cccc12 [4-099]	0 (Herbicidal rate of 5% or less (almost no effect))
CSc1ccccc1-c1sc2c(C)cccc2c1-c1c(O)c(C)nn(C)c1=O [4-116]	0 (Herbicidal rate of 5% or less (almost no effect))

Tested on: green foxtail
Test: Test Example 5: herbicidal effect by foliage application, plastic box (Table 20, symbol G)
Assay type: in vivo, green foxtail (Setaria viridis)
Settings: amount of applied herbicide 320 g/ha; foliage application after 14-day growth; evaluated three weeks after application
Outline: as §1

Structure (SMILES)	Herbicidal effect by foliage application, G: green foxtail
CCSc1cccc(-c2sc3c(Cl)cccc3c2-c2c(O)c(C)nn(C)c2=O)c1 [4-092]	3 (Herbicidal rate of 40% or more and less than 70%)
CCCC(=O)Oc1c(C)nn(C)c(=O)c1-c1c(-c2cccc3c2OCC3)sc2c(Cl)cccc12 [4-099]	0 (Herbicidal rate of 5% or less (almost no effect))
CSc1ccccc1-c1sc2c(C)cccc2c1-c1c(O)c(C)nn(C)c1=O [4-116]	0 (Herbicidal rate of 5% or less (almost no effect))

Tested on: Italian ryegrass
Test: Test Example 5: herbicidal effect by foliage application, plastic box (Table 20, symbol K)
Assay type: in vivo, Italian ryegrass (Lolium multiflorum)
Settings: amount of applied herbicide 320 g/ha; foliage application after 14-day growth; evaluated three weeks after application
Outline: as §1

Structure (SMILES)	Herbicidal effect by foliage application, K: Italian ryegrass
CCSc1cccc(-c2sc3c(Cl)cccc3c2-c2c(O)c(C)nn(C)c2=O)c1 [4-092]	2 (Herbicidal rate of 20% or more and less than 40%)
CCCC(=O)Oc1c(C)nn(C)c(=O)c1-c1c(-c2cccc3c2OCC3)sc2c(Cl)cccc12 [4-099]	0 (Herbicidal rate of 5% or less (almost no effect))
CSc1ccccc1-c1sc2c(C)cccc2c1-c1c(O)c(C)nn(C)c1=O [4-116]	0 (Herbicidal rate of 5% or less (almost no effect))

Tested on: windgrass
Test: Test Example 5: herbicidal effect by foliage application, plastic box (Table 20, symbol L)
Assay type: in vivo, windgrass (Apera spica-venti)
Settings: amount of applied herbicide 320 g/ha; foliage application after 14-day growth; evaluated three weeks after application
Outline: as §1

Structure (SMILES)	Herbicidal effect by foliage application, L: windgrass
CCSc1cccc(-c2sc3c(Cl)cccc3c2-c2c(O)c(C)nn(C)c2=O)c1 [4-092]	5 (Herbicidal rate of 90% or more (almost completely withered))
CCCC(=O)Oc1c(C)nn(C)c(=O)c1-c1c(-c2cccc3c2OCC3)sc2c(Cl)cccc12 [4-099]	0 (Herbicidal rate of 5% or less (almost no effect))
CSc1ccccc1-c1sc2c(C)cccc2c1-c1c(O)c(C)nn(C)c1=O [4-116]	0 (Herbicidal rate of 5% or less (almost no effect))

Tested on: barnyard grass
Test: Test Example 5: herbicidal effect by foliage application, plastic box (Table 20, symbol H)
Assay type: in vivo, barnyard grass (Echinochloa crus-galli)
Settings: amount of applied herbicide 320 g/ha; foliage application after 14-day growth; evaluated three weeks after application
Outline: as §1

Structure (SMILES)	Herbicidal effect by foliage application, H: barnyard grass
CCSc1cccc(-c2sc3c(Cl)cccc3c2-c2c(O)c(C)nn(C)c2=O)c1 [4-092]	3 (Herbicidal rate of 40% or more and less than 70%)
CCCC(=O)Oc1c(C)nn(C)c(=O)c1-c1c(-c2cccc3c2OCC3)sc2c(Cl)cccc12 [4-099]	0 (Herbicidal rate of 5% or less (almost no effect))
CSc1ccccc1-c1sc2c(C)cccc2c1-c1c(O)c(C)nn(C)c1=O [4-116]	0 (Herbicidal rate of 5% or less (almost no effect))

Tested on: chickweed
Test: Test Example 5: herbicidal effect by foliage application, plastic box (Table 20, symbol P)
Assay type: in vivo, common chickweed (Stellaria media)
Settings: amount of applied herbicide 320 g/ha; foliage application after 14-day growth; evaluated three weeks after application
Outline: as §1

Structure (SMILES)	Herbicidal effect by foliage application, P: chickweed
CCSc1cccc(-c2sc3c(Cl)cccc3c2-c2c(O)c(C)nn(C)c2=O)c1 [4-092]	4 (Herbicidal rate of 70% or more and less than 90%)
CCCC(=O)Oc1c(C)nn(C)c(=O)c1-c1c(-c2cccc3c2OCC3)sc2c(Cl)cccc12 [4-099]	1 (Herbicidal rate of 5% or more and less than 20%)
CSc1ccccc1-c1sc2c(C)cccc2c1-c1c(O)c(C)nn(C)c1=O [4-116]	4 (Herbicidal rate of 70% or more and less than 90%)

Tested on: rice flat sedge
Test: Test Example 3: herbicidal effect by foliage application, Wagner pot (Table 18, symbol E)
Assay type: in vivo, rice flat sedge (Cyperus iria)
Settings: 320 g/ha
Outline: (§2)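 Plants were sown in alluvial soil held under 0.1–0.5 cm standing water and grown 14 days in a greenhouse at 25–30 °C. An emulsifiable formulation, water-diluted to the set dose, was then sprayed onto the foliage, and effects were scored three weeks later using previously defined criteria.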

Structure (SMILES)	herbicidal effect on rice flat sedge (E)
CCSc1cccc(-c2sc3c(Cl)cccc3c2-c2c(O)c(C)nn(C)c2=O)c1 [4-092]	4 (Herbicidal rate of 70% or more and less than 90%)
CCCC(=O)Oc1c(C)nn(C)c(=O)c1-c1c(-c2cccc3c2OCC3)sc2c(Cl)cccc12 [4-099]	4 (Herbicidal rate of 70% or more and less than 90%)
CSc1ccccc1-c1sc2c(C)cccc2c1-c1c(O)c(C)nn(C)c1=O [4-116]	3 (Herbicidal rate of 40% or more and less than 70%)

Tested on: barnyard grass
Test: Test Example 3: herbicidal effect by foliage application, Wagner pot (Table 18, symbol H)
Assay type: in vivo, barnyard grass (Echinochloa crus-galli)
Settings: 320 g/ha
Outline: as §2

Structure (SMILES)	herbicidal effect on barnyard grass (H)
CCSc1cccc(-c2sc3c(Cl)cccc3c2-c2c(O)c(C)nn(C)c2=O)c1 [4-092]	5 (Herbicidal rate of 90% or more (almost completely withered))
CCCC(=O)Oc1c(C)nn(C)c(=O)c1-c1c(-c2cccc3c2OCC3)sc2c(Cl)cccc12 [4-099]	5 (Herbicidal rate of 90% or more (almost completely withered))
CSc1ccccc1-c1sc2c(C)cccc2c1-c1c(O)c(C)nn(C)c1=O [4-116]	3 (Herbicidal rate of 40% or more and less than 70%)

Tested on: velvetleaf
Test: Test Example 5: herbicidal effect by foliage application, plastic box (Table 20, symbol M)
Assay type: in vivo, velvetleaf (Abutilon theophrasti)
Settings: amount of applied herbicide 320 g/ha; foliage application after 14-day growth; evaluated three weeks after application
Outline: as §1

Structure (SMILES)	Herbicidal effect by foliage application, M: velvetleaf
CCSc1cccc(-c2sc3c(Cl)cccc3c2-c2c(O)c(C)nn(C)c2=O)c1 [4-092]	3 (Herbicidal rate of 40% or more and less than 70%)
CCCC(=O)Oc1c(C)nn(C)c(=O)c1-c1c(-c2cccc3c2OCC3)sc2c(Cl)cccc12 [4-099]	1 (Herbicidal rate of 5% or more and less than 20%)
CSc1ccccc1-c1sc2c(C)cccc2c1-c1c(O)c(C)nn(C)c1=O [4-116]	0 (Herbicidal rate of 5% or less (almost no effect))

Tested on: Chinese sprangletop
Test: Test Example 3: herbicidal effect by foliage application, Wagner pot (Table 18, symbol D)
Assay type: in vivo, chinese sprangletop (Leptochloa chinensis)
Settings: 320 g/ha
Outline: as §2

Structure (SMILES)	herbicidal effect on Chinese sprangletop (D)
CCSc1cccc(-c2sc3c(Cl)cccc3c2-c2c(O)c(C)nn(C)c2=O)c1 [4-092]	3 (Herbicidal rate of 40% or more and less than 70%)
CCCC(=O)Oc1c(C)nn(C)c(=O)c1-c1c(-c2cccc3c2OCC3)sc2c(Cl)cccc12 [4-099]	5 (Herbicidal rate of 90% or more (almost completely withered))
CSc1ccccc1-c1sc2c(C)cccc2c1-c1c(O)c(C)nn(C)c1=O [4-116]	4 (Herbicidal rate of 70% or more and less than 90%)

Tested on: persian speedwell
Test: Test Example 5: herbicidal effect by foliage application, plastic box (Table 20, symbol R)
Assay type: in vivo, Persian speedwell (Veronica persica)
Settings: amount of applied herbicide 320 g/ha; foliage application after 14-day growth; evaluated three weeks after application
Outline: as §1

Structure (SMILES)	Herbicidal effect by foliage application, R: persian speedwell
CCSc1cccc(-c2sc3c(Cl)cccc3c2-c2c(O)c(C)nn(C)c2=O)c1 [4-092]	5 (Herbicidal rate of 90% or more (almost completely withered))
CCCC(=O)Oc1c(C)nn(C)c(=O)c1-c1c(-c2cccc3c2OCC3)sc2c(Cl)cccc12 [4-099]	4 (Herbicidal rate of 70% or more and less than 90%)
CSc1ccccc1-c1sc2c(C)cccc2c1-c1c(O)c(C)nn(C)c1=O [4-116]	4 (Herbicidal rate of 70% or more and less than 90%)

Tested on: redroot pigweed
Test: Test Example 5: herbicidal effect by foliage application, plastic box (Table 20, symbol N)
Assay type: in vivo, redroot pigweed (Amaranthus retroflexus)
Settings: amount of applied herbicide 320 g/ha; foliage application after 14-day growth; evaluated three weeks after application
Outline: as §1

Structure (SMILES)	Herbicidal effect by foliage application, N: redroot pigweed
CCSc1cccc(-c2sc3c(Cl)cccc3c2-c2c(O)c(C)nn(C)c2=O)c1 [4-092]	5 (Herbicidal rate of 90% or more (almost completely withered))
CCCC(=O)Oc1c(C)nn(C)c(=O)c1-c1c(-c2cccc3c2OCC3)sc2c(Cl)cccc12 [4-099]	2 (Herbicidal rate of 20% or more and less than 40%)
CSc1ccccc1-c1sc2c(C)cccc2c1-c1c(O)c(C)nn(C)c1=O [4-116]	0 (Herbicidal rate of 5% or less (almost no effect))

Tested on: blackgrass
Test: Test Example 5: herbicidal effect by foliage application, plastic box (Table 20, symbol J)
Assay type: in vivo, blackgrass (Alopecurus myosuroides)
Settings: amount of applied herbicide 320 g/ha; foliage application after 14-day growth; evaluated three weeks after application
Outline: as §1

Structure (SMILES)	Herbicidal effect by foliage application, J: blackgrass
CCSc1cccc(-c2sc3c(Cl)cccc3c2-c2c(O)c(C)nn(C)c2=O)c1 [4-092]	0 (Herbicidal rate of 5% or less (almost no effect))
CCCC(=O)Oc1c(C)nn(C)c(=O)c1-c1c(-c2cccc3c2OCC3)sc2c(Cl)cccc12 [4-099]	0 (Herbicidal rate of 5% or less (almost no effect))
CSc1ccccc1-c1sc2c(C)cccc2c1-c1c(O)c(C)nn(C)c1=O [4-116]	0 (Herbicidal rate of 5% or less (almost no effect))
